Assay results as given in US9131648B2, “Genes encoding chavicol/eugenol synthase from the creosote bush Larrea tridentata” (Washington State University, priority 2006, dated 2015).
“Also recorded” adds a separate entry of the source. Like-named read-outs stand apart in the source and are kept apart here.

Columns and labels:
[1] = biological target: T1, LtPLRh1 (LtCES1) (Larrea tridentata, UniProt V5NR15); assay: In vitro test of LtPLRh1 with PLR, PCBER and IFR substrates; assay type: biochemical
[2] = biological target: T2, ObEGS1 (Ocimum basilicum, UniProt Q15GI4); conditions: cited from earlier work; for Vmax / kcat: ObEGS1
T2 sequence (Q15GI4 1-314): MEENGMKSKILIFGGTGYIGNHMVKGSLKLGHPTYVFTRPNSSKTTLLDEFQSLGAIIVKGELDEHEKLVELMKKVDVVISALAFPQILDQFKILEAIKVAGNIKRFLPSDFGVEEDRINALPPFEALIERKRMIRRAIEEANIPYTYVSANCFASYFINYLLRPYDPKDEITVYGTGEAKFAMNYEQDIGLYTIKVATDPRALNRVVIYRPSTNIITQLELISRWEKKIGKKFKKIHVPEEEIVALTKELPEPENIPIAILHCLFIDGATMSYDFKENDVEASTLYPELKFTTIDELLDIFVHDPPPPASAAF

[3] = biological target: T3, PhIGS1 (Petunia hybrida, UniProt Q15GI3); conditions: cited from earlier work; for Vmax / kcat: PhIGS1
T3 sequence (Q15GI3 1-323): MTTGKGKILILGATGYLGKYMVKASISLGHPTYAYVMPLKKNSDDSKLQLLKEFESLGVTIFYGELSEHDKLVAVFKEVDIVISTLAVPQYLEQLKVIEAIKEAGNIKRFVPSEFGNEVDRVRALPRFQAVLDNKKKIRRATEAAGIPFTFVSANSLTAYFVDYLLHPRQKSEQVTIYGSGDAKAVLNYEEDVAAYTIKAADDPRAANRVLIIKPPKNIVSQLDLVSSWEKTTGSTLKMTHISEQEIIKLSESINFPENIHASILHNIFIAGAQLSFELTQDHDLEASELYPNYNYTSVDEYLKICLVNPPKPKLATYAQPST

[4] = biological target: T1, LtPLRh1 (LtCES1); assay: LtPLRh1 (LtCES1) chavicol/eugenol synthase assays, kinetic parameters for monolignol ester substrates; assay type: biochemical; conditions: for Km values / Vmax values: PLR homologue in the creosote bush; for Vmax / kcat: Table 2, LtPLRh1 apparent
Method: (§1) Enzymatic assays. All assays were performed at 30° C. in 250 μl of the corresponding buffered solutions (at 100 mM buffer concentration) containing 0.5 μg […]1) Rh1 and 1.0 mM NADPH, and were terminated by addition of 25 μl glacial acetic acid and freezing. […] Assays were carried out for 1 to 120 min; controls included both boiled enzyme extracts and omission of substrates. Kinetic parameters (Km and Vmax): Three sets of triplicate assays were carried out for 5 min in Bis-Tris propane buffer at pH 7.55, and contained different concentrations of p-coumaryl acetate (48), p-coumaryl coumarate (50) or coniferyl acetate (49) (3.2 μM-1 mM).

[5] = tested on: basil CS/ES and petunia IES; conditions: range over basil CS/ES and petunia IES, cited from earlier work
[6] = biological target: T4, PLR_Tp1 (Thuja plicata, UniProt Q9LD14); conditions: Kim et al., manuscript in preparation (34), cited from earlier work
T4 sequence (Q9LD14 1-313): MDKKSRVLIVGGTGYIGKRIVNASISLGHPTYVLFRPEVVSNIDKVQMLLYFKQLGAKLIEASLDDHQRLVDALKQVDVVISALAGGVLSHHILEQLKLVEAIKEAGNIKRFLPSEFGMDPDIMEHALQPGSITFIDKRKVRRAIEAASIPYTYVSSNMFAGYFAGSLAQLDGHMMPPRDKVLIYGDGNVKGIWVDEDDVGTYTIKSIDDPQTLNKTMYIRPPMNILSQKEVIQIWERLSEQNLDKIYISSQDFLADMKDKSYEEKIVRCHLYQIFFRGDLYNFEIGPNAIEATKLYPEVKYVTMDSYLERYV

[7] = substrate: CC(=O)OC/C=C/c1ccc(O)cc1; assay: LtPLRh1 (LtCES1) chavicol/eugenol synthase assays, kinetic parameters for monolignol ester substrates; assay type: biochemical, Larrea tridentata; conditions: other: Table 1, Bis-Tris propane pH 7.55, 30° C., 1.0 mM NADPH, apparent values
Method: as §1

[8] = substrate: COc1cc(/C=C/COC(C)=O)ccc1O; assay: as above; assay type: biochemical, Larrea tridentata; conditions: other: Table 1, Bis-Tris propane pH 7.55, 30° C., 1.0 mM NADPH, apparent values
Method: as §1

[9] = substrate: O=C(/C=C/c1ccc(O)cc1)OC/C=C/c1ccc(O)cc1; assay: as above; assay type: biochemical, Larrea tridentata; conditions: other: Table 1, Bis-Tris propane pH 7.55, 30° C., 1.0 mM NADPH, apparent values
Method: as §1

[10] = Characterisation of recombinant LtPLRh1: pH optimum and efficiency versus homologues; assay type: biochemical, Larrea tridentata; conditions: from previously reported kinetic parameters (26)
Method: Enzymatic assays. All assays were performed at 30° C. in 250 μl of the corresponding buffered solutions (at 100 mM buffer concentration) containing 0.5 μg LtPL LtPLRh1 (LtCES1) Rh1 and 1.0 mM NADPH, and were terminated by addition of 25 μl glacial acetic acid and freezing. Chavicol/eugenol synthase activity assays were individually performed in Bis-Tris propane buffer (pH 7.55) containing 0.4 mM p-coumaryl coumarate (50), p-coumaryl acetate (48) or coniferyl acetate (49). Assays were carried out for 1 to 120 min; controls included both boiled enzyme extracts and omission of substrates.
Kinetic parameters (Km and Vmax): Three sets of triplicate assays were carried out for 5 min in Bis-Tris propane buffer at pH 7.55, and contained different concentrations of p-coumaryl acetate (48), p-coumaryl coumarate (50) or coniferyl acetate (49) (3.2 μM-1 mM).

Q: With COc1ccc(-c2coc3cc(O)cc(O)c3c2=O)cc1 [biochanin A (74), biochanin A] as the molecule, how does the “activity of LtPLRh1 towards the compound as substrate” value (“activity … as substrate” below) [1] read?
A: The value was “at best marginal activity; also recorded: do not serve as substrates”.

Q: Which results are given for COc1cc(/C=C/COC(C)=O)ccc1O [coniferyl acetate (49), coniferyl acetate]?
A: Km ([2]; Table 1, ObEGS1, Koeduka et al. 2006): 5100 µM; Vmax ([2]; Table 1): 20 pkat μg^−1 prot.; kcat ([2]; Table 1): 0.7 s⁻¹; Km ([2]; Table 2, ObEGS1, as reported in (26)): 5100 µM; Vmax ([2]; Table 2): 20 pkat/μg; kcat ([2]; Table 2): 0.7 s⁻¹; Km ([3]; Table 1, PhIGS1, Koeduka et al. 2006): 1600 µM; Vmax ([3]; Table 1): 7 pkat μg^−1 prot.; kcat ([3]; Table 1): 0.3 s⁻¹; Km ([3]; Table 2, PhIGS1, as reported in (26)): 1600 µM; Vmax ([3]; Table 2): 7 pkat/μg; kcat ([3]; Table 2): 0.3 s⁻¹; efficiency of reduction by LtPLRh1 relative to reported homologues in basil and petunia [4]: > 100 fold; Km values [4]: a few hundred; Vmax values [4]: a few hundred; Vmax [4]: 190 pkat/μg; kcat [4]: 6.46 s⁻¹; Vmax [5]: 7-20 pkat μg^−1 protein; Km ([5]; read-out: substrate affinities (Km)): 1600 to 5100 µM

Q: With COc1cc(C2Oc3c(OC)cc(/C=C/CO)cc3C2CO)ccc1O (centres unmarked) [dehydrodiconiferyl alcohol (56), dehydrodiconiferyl alcohol] as the molecule, how does the “activity … as substrate” value [1] read?
A: The value was “at best marginal activity”.

Q: With O=c1c(-c2ccc(O)cc2)coc2cc(O)cc(O)c12 [genistein (73), genistein] as the molecule, how does the “activity … as substrate” value [1] read?
A: The value was “at best marginal activity; also recorded: do not serve as substrates”.

Q: With C[C@@H]1[C@H](C)[C@@H](c2ccc(O)cc2)O[C@@H]1c1ccc(O)cc1 [larreatricin (62), larreatricin] as the molecule, how does the “activity … as substrate” value [1] read?
A: The value was “at best marginal activity”.

Q: With C/C=C/c1cc(OC)c2c(c1)[C@H](C)[C@@H](c1ccc(O)c(OC)c1)O2 [licarin A (64), licarin A] as the molecule, how does the “activity … as substrate” value [1] read?
A: Its value is “at best marginal activity”.

Q: Which “PLR-catalyzed reduction (serves as substrate)” value (shortened to “PLR-catalyzed reduction”) [6] does the source give for COc1cc([C@H]2OC[C@@H]3C(c4cc(OC)c(O)c(OC)c4)OC[C@H]23)ccc1O (some centres unmarked) [medioresinol (69), medioresinol] here?
A: The value was “uses several p-hydroxylated phenylpropanoid substrates”.

Q: And the “PLR-catalyzed reduction” value ([6]; listed as Medioresinol (69))?
A: Its value is “additional PLR substrates”.

Q: For COc1cc([C@H]2O[C@@H](c3ccc(O)c(OC)c3)[C@H](C)[C@@H]2C)ccc1O [nectandrin B (72), nectandrin B], which “activity … as substrate” value [1] is on record?
A: The value was “at best marginal activity; also recorded: do not serve as substrates”.

Q: For CC(=O)OC/C=C/c1ccc(O)cc1 [p-coumaryl acetate (48), p-coumaryl acetate], which Km values [4] is on record?
A: Its Km values is “a few hundred”.

Q: And the Vmax values [4]?
A: Its Vmax values is “a few hundred”.

Q: What about the Vmax [4] of the same molecule?
A: Its Vmax is 200 pkat/μg.

Q: What about the kcat [4] of the same molecule?
A: The kcat was 6.80 s⁻¹.

Q: With O=C(/C=C/c1ccc(O)cc1)OC/C=C/c1ccc(O)cc1 [p-coumaryl coumarate (50), p-coumaryl coumarate] as the molecule, how does the Km values [4] read?
A: The Km values was “a few hundred”.

Q: What about the Vmax values [4] of the same molecule?
A: Its Vmax values is “a few hundred”.

Q: And the Vmax [4]?
A: The Vmax was 75 pkat/μg.

Q: And the kcat [4]?
A: Its kcat is 2.55 s⁻¹.

Q: Which “PLR-catalyzed reduction” value [6] does the source give for c1cc2c(cc1[C@H]1OC[C@H]3[C@@H]1CO[C@@H]3c1ccc3c(c1)OCO3)OCO2 [sesamin (71), sesamin] here?
A: Its value is “fails to reduce; also recorded: does not undergo PLR-catalyzed reduction”.

Q: Which “PLR-catalyzed reduction” value [6] does the source give for COc1cc([C@H]2OC[C@H]3[C@@H]2CO[C@@H]3c2cc(OC)c(O)c(OC)c2)cc(OC)c1O [syringaresinol (70), syringaresinol] here?
A: The value was “uses several p-hydroxylated phenylpropanoid substrates; also recorded: additional PLR substrates”.

Q: For pinoresinol [pinoresinol (54)], which “activity … as substrate” value [1] is on record?
A: Its value is “at best marginal activity”.

Q: And the “PLR-catalyzed reduction” value [6]?
A: Its value is “uses several p-hydroxylated phenylpropanoid substrates”.

B1: LtPLRh1 (LtCES1) (Larrea tridentata) (protein)
chain: MAQKSKILIIGGTGYIGKFVVEASAKAGRPTFALVRESTVSDPVKGKLIANFKNLGVNILHGDLNDHESLVKAIKKVDVVISTVGNFQIADQVKIIAAIKAAGNVKRFFPSEFGNDVDRTHAVEPAKSTFEMKAQLRRTIEAEGIPYTYVSSNFFAGYFLPVLGQVGVTAPPRDKVTILGDGNQKAVFNKEDDIGTYTIRAADDPRTLNKILYIRPPRNTYSMNELVALWEKKIGKTLEKTYVPEEQLLKNIQEAEIPWNVVLAINHSVFVKGDHTNFAIKPSFGVEASELYPDVKYTTVEEYLSQFV
Q: Which Km [7] does the source give for B1 here?
A: The Km was 350 µM.

Q: And the Vmax [7]?
A: The Vmax was 12 µmol/min/mg.

Q: What about the kcat [7] of the same molecule?
A: Its kcat is 6.8 s⁻¹.

Q: What about the kcat/Km [7] of the same molecule?
A: Its kcat/Km is 19500 M⁻¹ s⁻¹.

Q: What about the Km [8] of the same molecule?
A: Its Km is 290 µM.

Q: And the Vmax [8]?
A: Its Vmax is 11.4 µmol/min/mg.

Q: And the kcat [8]?
A: The kcat was 6.46 s⁻¹.

Q: What about the kcat/Km [8] of the same molecule?
A: Its kcat/Km is 22000 M⁻¹ s⁻¹.

Q: And the Km [9]?
A: Its Km is 210 µM.

Q: And the Vmax [9]?
A: Its Vmax is 4.5 µmol/min/mg.

Q: And the kcat [9]?
A: Its kcat is 2.55 s⁻¹.

Q: And the kcat/Km [9]?
A: Its kcat/Km is 12000 M⁻¹ s⁻¹.

B2: LtPLRh1: pinoresinol-lariciresinol reductase homologue from Larrea tridentata, chavicol/eugenol synthase, SEQ ID NO:2, recombinant 34 kDa (protein)
chain: MAQKSKILIIGGTGYIGKFVVEASAKAGRPTFALVRESTVSDPVKGKLIANFKNLGVNILHGDLNDHESLVKAIKKVDVVISTVGNFQIADQVKIIAAIKAAGNVKRFFPSEFGNDVDRTHAVEPAKSTFEMKAQLRRTIEAEGIPYTYVSSNFFAGYFLPVLGQVGVTAPPRDKVTILGDGNQKAVFNKEDDIGTYTIRAADDPRTLNKILYIRPPRNTYSMNELVALWEKKIGKTLEKTYVPEEQLLKNIQEAEIPWNVVLAINHSVFVKGDHTNFAIKPSFGVEASELYPDVKYTTVEEYLSQFV
modifications: Larrea tridentate
Q: Which results are given for B2?
A: efficiency/activity relative to the enzymes reported in basil and petunia [10]: > 100 fold; efficiency/activity relative to the enzymes reported in basil and petunia ([10]; listed as LtPLRh1 (LtCES1)): over 100 fold
